Results on 17 compounds are retold here after patent EP4306512A1, “QUINOLYLNITRONES WITH IMPROVED POTENCY” (Fundación para la Investigación Biomédica del Hospital …, priority 2022, dated 2024).

SMILES strings stand for the structures.

The data set concerns Primary neuronal cultures. Put plainly: Neuroprotection after oxygen-glucose deprivation (OGD 4 h, 24 h recovery) in primary neuronal cultures, cell viability by MTT assay. The data set is classed as cell-based, rat. To be noted: for cell viability: MTT absorbance after OGD 4 h and 24 h recovery, R24h vehicle 1.480 ± 0.02 AU, control 1.916 ± 0.07 AU; for Neuroprotection at 1 µM / Neuroprotection at 10 µM / Neuroprotection at 100 µM: Rattus norvegicus; for Neuroprotection at 1 µM: Conc 1 µM; for Neuroprotection at 10 µM: Conc 10 µM; for protective effect (cell viability compared with vehicle-treated group R24h), in words: concentration range tested, from 0.1 to 250 µM; for neuroprotection effect / potency compared with references, in words: 1 µM for the compounds of the invention vs 10 µM for QN23 and 100 µM NXY-059; for toxicity / safety, in words: all tested doses. As for the experimental part:
Primary Neuronal Cultures. Primary neuronal cultures were prepared from rat embryos cerebral cortex following a procedure previously described by our group. Briefly, cell suspensions were prepared from cerebral cortices from E16 Sprague Dawley rat embryos and seeded on plastic multidishes precoated with 0.05 mg/mL poly-D-lysine at a density of 2.5 × 10^5 cells/cm^2. Cells were kept at 37 °C in a 6.5% CO2 atmosphere in high glucose DMEM medium supplemented with 15% heat-inactivated (56 °C, 30 min) fetal calf serum. After 24 h, culture medium was replaced by serum-free medium (DMEM/Ham's F12, 1:1 vol/vol, 5 mg/mL glucose, 2 mM L-glutamine, and 1 mM sodium pyruvate, supplemented with 100 µg/mL transferrin, 100 µM putrescine, 30 nM sodium selenite, 20 nM progesterone, and 5 µg/mL insulin). In these experiments, 6- to 7-days in vitro (DIV) neuronal cultures were used, containing 90% β-tubulin isotype III-positive mature neurons, as described previously.^23 All procedures associated with animal experiments were authorized by the Animal Experimentation Ethics Committee of the Hospital Universitario Ramón y Cajal (Madrid, Spain).
Experimental Ischemia in Neuronal Cultures and Treatments. Primary neuronal cultures were subjected to oxygen-glucose deprivation (OGD) to induce experimental ischemia. Cells cultured for 6- to 7- DIV were washed and placed in glucose-free DMEM medium (previously bubbled with 95% N2/5% CO2 for 30 min) and kept in a humidified anaerobic chamber containing a gas mixture of 95% N2/5% CO2 at 37 °C for 4 h (OGD 4h). Control group was placed in glucose-supplemented DMEM medium and kept in the normoxic incubator for 4h. After 4h of incubation under anoxic (OGD 4h) or normoxic (control) conditions, culture cells were quickly placed in serum-free normo-glycemic culture medium and let to reoxygenate, compounds or vehicle were added and cells were maintained in normoxic and normoglycemic conditions to recover for 24 h. Vehicle experimental group (R24h) included the same amount of vehicle solution than the groups tested with compounds (final concentration < 0.5% ethanol). The experimental procedure was blindly performed, assigning a random order to each group assayed. Compound assays were performed independently from four to eight times with different batches of cultures, and each experiment was run in quadruplicate.
Cell viability assays. To assess the potential neuroprotective effect of the compounds against OGD, cell viability was evaluated by quantification of living, metabolically active cells, as determined by the colorimetric assay using the photometric reduction of 3-(4,5-dimethylthiazol-2-yl)-2,5-diphenyl tetrazolium bromide (MTT) (Roche) to a blue formazan product. MTT assay was performed after the 24-hour-long recovery period -except for the OGD 4h group, for which MTT was added right after the end of the OGD period, with no recovery- by treating cells with 0.2 mg/mL MTT in the culture medium for 1.5 h at 37 °C in a 6.5% CO2 atmosphere. After incubation, cells were lysed with an equal volume of lysis solution (10 mM HCl, 10% SDS) overnight. Values were quantified by absorbance at 595 nm (reference 690 nm) and expressed in Absorbance Units (AU). Decreased MTT activity denotes impairment of mitochondrial function and is indicative of cell damage.
Statistical Analysis. Data from each treatment were independently analyzed and their averaged values were used for statistical analysis. The treatment information was kept concealed throughout the study. Data were represented as mean ± SE. Analysis of variance (ANOVA) was performed to compare the data between multiple concentrations, following post hoc test when analysis of variance was significant. Statistical significance level was set at α = 0.05 using Prism statistical software (GraphPad Software).
Cell viability observed in the control group was set as 100% of neuroprotection. […]

The mark [1] stands for this setting: Conc 100 µM, added at onset of 24 h recovery after OGD 4 h, R24h vehicle = 0%, control = 100%, mean ± SE.
Where [2] appears, read: added at onset of 24 h recovery after OGD 4 h, R24h vehicle = 0%, control = 100%, mean ± SE.

`CC(C)(C)[N+]([O-])=Cc1ccc(S(=O)(=O)[O-])cc1S(=O)(=O)[O-].[Na+].[Na+]` [NXY-059, reference compound]: the cell viability (100 µM) was found to be 1.664 ± 0.07 AU. For the same compound, the “Neuroprotection (%)” value under setting [1] is 41.93 ± 2.26%.

Regarding `C#CCOc1ccc2nc(Cl)c(/C=[N+](\[O-])Cc3ccccc3)cc2c1` [QN1, (Z)-N-Benzyl-1-(2-chloro-6-(prop-2-yn-1-yloxy)quinolin-3-yl)methanimine oxide], the “protective effect (cell viability compared with vehicle-treated group R24h), in words” value is “no remarkable overall protective effect”. Besides, under setting [2], the Neuroprotection at 1 µM turned out to be 26.9 ± 0.88% and the Neuroprotection at 10 µM worked out at 34.8 ± 0.78%. Under setting [1], the Neuroprotection at 100 µM was 41.3 ± 1.91%.

Take `C#CCOc1ccc2nc(Cl)c(/C=[N+](\[O-])C(C)(C)C)cc2c1` [QN2, (Z)-N-tert-Butyl-1-(2-chloro-6-(prop-2-yn-1-yloxy)quinolin-3-yl)methanimine oxide]: the “protective effect (cell viability compared with vehicle-treated group R24h), in words” value is “no remarkable overall protective effect”. In addition, under setting [2], the Neuroprotection at 1 µM was 33.7 ± 0.73% and the Neuroprotection at 10 µM was found to be 33.3 ± 0.93%. The compound also yielded a Neuroprotection at 100 µM under setting [1] of 40 ± 0.77%.

Consider `[O-]/[N+](=C\c1cc2cc(OCc3ccccc3)ccc2nc1Cl)Cc1ccccc1` [QN3, (Z)-N-Benzyl-1-(6-(benzyloxy)-2-chloroquinolin-3-yl)methanimine oxide], for which the Neuroprotection at 1 µM under setting [2] was 45.2 ± 1%.

With `CC(C)(C)/[N+]([O-])=C/c1cc2cc(OCc3ccccc3)ccc2nc1Cl` [QN4, (Z)-N-tert-Butyl-1-(6-(benzyloxy)-2-chloroquinolin-3-yl)methanimine oxide], the “neuroprotection effect / potency compared with references, in words” value was “highest neuroprotection effect”. The same compound returned a cell viability (1 µM) of 1.777 ± 0.04 AU. Under setting [2], the Neuroprotection at 1 µM amounted to 67.9 ± 1.44%.

On to `COc1ccc2nc(O)c(/C=[N+](\[O-])C(C)(C)C)cc2c1` [QN5, (Z)-N-tert-Butyl-1-(2-hydroxy-6-methoxyquinolin-3-yl)methanimine oxide], for which the “protective effect (cell viability compared with vehicle-treated group R24h), in words” value is reported as “did not give a remarkable protective effect”. The Neuroprotection at 1 µM under setting [2] stood at 24.5 ± 0.54%.

For `COc1ccc2nc(F)c(/C=[N+](\[O-])Cc3ccccc3)cc2c1` [QN6, (Z)-N-Benzyl-1-(6-(methoxy)-2-fluoroquinolin-3-yl)methanimine oxide], the “protective effect (cell viability compared with vehicle-treated group R24h), in words” value is reported as “did not show significant differences to the value obtained for the vehicle-treated group”. Also, under setting [2], the Neuroprotection at 1 µM was found to be 26.3 ± 0.89% and the Neuroprotection at 10 µM is 25.1 ± 1.03%.

Regarding `COc1ccc2nc(F)c(/C=[N+](\[O-])C(C)(C)C)cc2c1` [QN7, (Z)-N-tert-Butyl-1-(6-(methoxy)-2-fluoroquinolin-3-yl)methanimine oxide], the “protective effect (cell viability compared with vehicle-treated group R24h), in words” value is listed as “did not show significant differences to the value obtained for the vehicle-treated group”. The Neuroprotection at 1 µM under setting [2] amounted to 38.5 ± 0.62%.

Consider `COc1ccc2nc(S(=O)(=O)c3ccccc3)c(/C=[N+](\[O-])Cc3ccccc3)cc2c1` [QN8, (Z)-N-Benzyl-1-(6-methoxy-2-(phenylsulfonyl)quinolin-3-yl)methanimine oxide], for which the “neuroprotection effect / potency compared with references, in words” value was “highest neuroprotection effect”. Moreover, the Neuroprotection at 1 µM under setting [2] stood at 54.1 ± 2.27%.

`COc1ccc2nc(S(=O)(=O)c3ccc([N+](=O)[O-])cc3)c(/C=[N+](\[O-])Cc3ccccc3)cc2c1` [QN10, (Z)-N-Benzyl-1-(2-((4-nitrophenyl)sulfonyl)-6-methoxyquinolin-3-yl)methanimine oxide] yielded a Neuroprotection at 1 µM under setting [2] of 47.2 ± 0.94%.

`COc1ccc2nc(S(=O)(=O)c3ccc([N+](=O)[O-])cc3)c(/C=[N+](\[O-])C(C)(C)C)cc2c1` [QN11, (Z)-N-tert-Butyl-1-(2-((4-nitrophenyl)sulfonyl)-6-methoxyquinolin-3-yl)methanimine oxide] had a Neuroprotection at 1 µM under setting [2] of 46.5 ± 1.94%.

For `COc1ccc2nc(-c3ccc(C(F)(F)F)cc3)c(/C=[N+](\[O-])C(C)(C)C)cc2c1` [QN13, (Z)-N-tert-Butyl-1-(6-methoxy-2-(4-(trifluoromethyl)phenyl)quinolin-3-yl)methanimine oxide], under setting [2], the Neuroprotection at 1 µM was found to be 39.3 ± 1.16%.

Consider `COc1ccc2nc(-c3ccc([N+](=O)[O-])cc3)c(/C=[N+](\[O-])Cc3ccccc3)cc2c1` [QN14, (Z)-N-Benzyl-1-(6-methoxy-2-(4-nitrophenyl)quinolin-3-yl)methanimine oxide], for which the “neuroprotection effect / potency compared with references, in words” value is “highest neuroprotection effect” and the “toxicity / safety, in words” value is recorded as “safe”. For the setting “1 µM”, the cell viability was 1.742 ± 0.04 AU. Under setting [2], the Neuroprotection at 1 µM is 60.1 ± 1.24%.

Regarding `COc1ccc2nc(-c3ccc([N+](=O)[O-])cc3)c(/C=[N+](\[O-])C(C)(C)C)cc2c1` [QN15, (Z)-N-tert-Butyl-1-(6-methoxy-2-(4-nitrophenyl)quinolin-3-yl)methanimine oxide], the “neuroprotection effect / potency compared with references, in words” value is on record as “highest neuroprotection effect” and the “toxicity / safety, in words” value is “safe”. Under setting [2], this compound had a Neuroprotection at 1 µM of 48.1 ± 1.21%.

As to `CCOC(=O)/C=C/c1nc2ccc(OC)cc2cc1/C=[N+](\[O-])C(C)(C)C` [QN16, (Z)-N-tert-Butyl-1-(2-((E)-3-ethoxy-3-oxoprop-1-en-1-yl)-6-methoxyquinolin-3-yl)methanimine oxide], the “effect compared with vehicle R24h, in words” value (1 µM dose) is “higher effect than vehicle R24h”.

Compound `COc1ccc2nc(Cl)c(/C=[N+](\[O-])C(C)(C)C)cc2c1` [QN23, (Z)-N-tert-butyl-1-(2-chloro-6-methoxyquinolin-3-yl)methanimine oxide, reference compound] registered a cell viability (10 µM) of 1.695 ± 0.03 AU. The compound also had a Neuroprotection at 10 µM under setting [2] of 49 ± 0.89%.

`C[N+](C)(C)CCOP(=O)(O)OP(=O)([O-])OC[C@H]1O[C@@H](n2ccc(N)nc2=O)[C@H](O)[C@@H]1O` [citicoline, reference compound] yielded a cell viability (100 µM) of 1.588 ± 0.02 AU.
